26 molecules from US20200055839A1 (priority 2017, published 2020) can be followed below.

One may read the EC50 as the concentration that produces a half-maximal response. Low readings indicate higher potency in that assay, high ones lower potency in that assay.

SMILES strings stand for the structures.

The test concerns NL-RLuc virus. Description: Inhibition of HIV replication (NL-RLuc virus, luciferase readout in MT-2 cells). It is filed as cell-based. To be noted: Human immunodeficiency virus 1, MT2, 120 h, MT-2 cells infected with NL-RLuc virus, 5 days of incubation, 10% FBS, at least 2 experiments. An outline of the steps:
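EC50 derived via median effect equation from at least 2 experiments, using luciferase expression as virus-growth readout. Replication-competent NL-RLuc reporter virus (nef partly replaced by Renilla luciferase) infected MT-2 cells with serial compound dilutions; 5-day incubation in RPMI 1640 plus 10% FBS.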

Turning to `Cc1ncc(-c2cccc(F)c2C)c(N2CCC(C)(C)CC2)c1[C@H](OC(C)(C)C)C(=O)O` [Example 160, (2S)-2-(tert-Butoxy)-2-[4-(4,4-dimethylpiperidin-1-yl)-5-(3-fluoro-2-methylphenyl)-2-methylpyridin-3-yl]acetic acid], the EC50 was 13 nM. As to `Cc1nc(C(=O)N2CCS(=O)(=O)CC2)c(-c2ccc(OCCc3ccc(F)cc3)cc2)c(N2CCC(C)(C)CC2)c1[C@H](OC(C)(C)C)C(=O)O` [Example 10, (S)-2-(tert-Butoxy)-2-(4-(4,4-dimethylpiperidin-1-yl)-6-(1,1-dioxidothiomorpholine-4-carbonyl)-5-(4-(4-fluorophenethoxy)phenyl)-2-methylpyridin-3-yl)acetic acid], a half-maximal response (EC50) required 31 nM. `CCC(C)(C)O[C@H](C(=O)O)c1c(C)ncc(-c2ncc(OCCc3ccc(F)cc3)cn2)c1N1CCC(C)(C)CC1` [Example 247, (S)-2-(4-(4,4-Dimethylpiperidin-1-yl)-5-(5-(4-fluorophenethoxy)pyrimidin-2-yl)-2-methylpyridin-3-yl)-2-(tert-pentyloxy)acetic acid] yielded an EC50 of 0.8 nM. The result for `CCCCN(C)c1ccc(-c2cnc(C)c([C@H](OC(C)(C)C)C(=O)O)c2N2CCC(C)(C)CC2)nc1` [Example 442, (S)-2-(tert-Butoxy)-2-(5-(butyl(methyl)amino)-4′-(4,4-dimethylpiperidin-1-yl)-6′-methyl-[2, 3′-bipyridin]-5′-yl)acetic acid] reads 5 nM; that for `Cc1ncc(-c2ccc(C(F)(F)F)c(F)c2F)c(N2CCC(C)(C)CC2)c1[C@H](OC(C)(C)C)C(=O)O` [Example 172, (2S)-2-(tert-Butoxy)-2-{5-[2,3-difluoro-4-(trifluoromethyl)phenyl]-4-(4,4-dimethylpiperidin-1-yl)-2-methylpyridin-3-yl}acetic acid], 14 nM; that for `Cc1cc(F)ccc1CCOc1ccc(-c2cnc(C)c([C@H](OC(C)(C)C)C(=O)O)c2N2CCC(C)(C)CC2)nc1` [Example 286, (S)-2-(tert-Butoxy)-2-(4′-(4,4-dimethylpiperidin-1-yl)-5-(4-fluoro-2-methylphenethoxy)-6′-methyl-[2, 3′-bipyridin]-5′-yl)acetic acid], 1 nM. For the molecule `COc1cccc(CCOc2ccc(-c3cnc(C)c([C@H](OC(C)(C)C)C(=O)O)c3N3CCC(C)(C)CC3)nc2)c1` [Example 301, (2S)-2-(tert-butoxy)-2-[4′-(4,4-dimethylpiperidin-1-yl)-5-[2-(3-methoxyphenyl)ethoxy]-6′-methyl-[2,3′-bipyridine]-5′-yl]acetic acid], the EC50 is 1 nM. The result for `COc1cccc(-c2cnc(C)c([C@H](OC(C)(C)C)C(=O)O)c2N2CCC(C)(C)CC2)c1F` [Example 156, (2S)-2-(tert-Butoxy)-2-[4-(4,4-dimethylpiperidin-1-yl)-5-(2-fluoro-3-methoxyphenyl)-2-methylpyridin-3-yl]acetic acid] reads 1 nM; that for `CC1(C)CCN(c2c(-c3ccc(OCCc4ccc(F)cc4)cc3)cnc(CF)c2[C@H](OC(C)(C)C)C(=O)O)CC1` [Example 7, (S)-2-(tert-Butoxy)-2-(4-(4,4-dimethylpiperidin-1-yl)-2-(fluoromethyl)-5-(4-(4-fluorophenethoxy)phenyl)pyridin-3-yl)acetic acid], 2 nM; that for `Cc1ncc(-c2cnc(OCCc3ccc(F)c(F)c3)c(F)c2)c(N2CCC(C)(C)CC2)c1[C@H](OC(C)(C)C)C(=O)O` [Example 392, (2S)-2-(tert-butoxy)-2-{6′-[2-(3,4-difluorophenyl)ethoxy]-4-(4,4-dimethylpiperidin-1-yl)-5′-fluoro-6-methyl-[3,3′-bipyridine]-5-yl}acetic acid], 1 nM. The result for `Cc1nc(NCCn2cccn2)c(-c2ccc(OCCc3ccc(F)cc3)cc2)c(N2CCC(C)(C)CC2)c1[C@H](OC(C)(C)C)C(=O)O` [Example 33, (S)-2-(6-((2-(1H-Pyrazol-1-yl)ethyl)amino)-4-(4,4-dimethylpiperidin-1-yl)-5-(4-(4-fluorophenethoxy)phenyl)-2-methylpyridin-3-yl)-2-(tert-butoxy)acetic acid] reads 2 nM. The result for `CCC(C)(C)O[C@H](C(=O)O)c1c(C)ncc(-c2ccc(OCCc3ccc(F)cc3)cc2)c1N1CCC(C)(C)CC1` [Example 18, (2S)-2-[4-(4,4-Dimethylpiperidin-1-yl)-5-{4-[2-(4-fluorophenyl)ethoxy]phenyl}-2-methylpyridin-3-yl]-2-[(2-methylbutan-2-yl)oxy]acetic acid] reads 4 nM; that for `COc1nc(OCC(C)C)ccc1-c1cnc(C)c([C@H](OC(C)(C)C)C(=O)O)c1N1CCC(C)(C)CC1` [Example 413, (S)-2-(tert-Butoxy)-2-(4-(4,4-dimethylpiperidin-1-yl)-6′-isobutoxy-2′-methoxy-6-methyl-[3,3′-bipyridin]-5-yl)acetic acid], 16 nM; that for `Cc1ncc(-c2cnc(OCCc3ccc(F)cc3)c(F)c2)c(N2CCC(C)(C)CC2)c1[C@H](OC(C)(C)C)C(=O)O` [Example 118, (S)-2-(tert-Butoxy)-2-(4-(4,4-dimethylpiperidin-1-yl)-5′-fluoro-6′-(4-fluorophenethoxy)-6-methyl-[3, 3′-bipyridin]-5-yl)acetic acid], 1 nM. The molecule `Cc1ncc(-c2cnc(OCCc3cc(F)cc(F)c3)c(F)c2)c(N2CCC(C)(C)CC2)c1[C@H](OC(C)(C)C)C(=O)O` [Example 390, (2S)-2-(tert-butoxy)-2-{6′-[2-(3,5-difluorophenyl)ethoxy]-4-(4,4-dimethylpiperidin-1-yl)-5′-fluoro-6-methyl-[3,3′-bipyridine]-5-yl}acetic acid] came in with an EC50 of 2 nM. Molecule `Cc1nc(NC2CC2)c(-c2ccc(OCCc3ccc(F)cc3)cc2)c(N2CCC(C)(C)CC2)c1[C@H](OC(C)(C)C)C(=O)O` [Example 106, (S)-2-(tert-Butoxy)-2-(6-(cyclopropylamino)-4-(4,4-dimethylpiperidin-1-yl)-5-(4-(4-fluorophenethoxy)phenyl)-2-methylpyridin-3-yl)acetic acid] gave an EC50 of 1 nM.

`Cc1nc(NC2CCN(S(C)(=O)=O)CC2)c(-c2ccc(OCCc3ccc(F)cc3)cc2)c(N2CCC(C)(C)CC2)c1[C@H](OC(C)(C)C)C(=O)O` [Example 99, (S)-2-(tert-Butoxy)-2-(4-(4,4-dimethylpiperidin-1-yl)-5-(4-(4-fluorophenethoxy)phenyl)-2-methyl-6-((1-(methylsulfonyl)piperidin-4-yl)amino)pyridin-3-yl)acetic acid] yielded an EC50 of 0.6 nM. The value for `Cc1ncc(-c2ccc(OCCc3ccc(F)cc3)cc2F)c(N2CCC(C)(C)CC2)c1[C@H](OC(C)(C)C)C(=O)O` [Example 123, (S)-2-(tert-Butoxy)-2-(4-(4,4-dimethylpiperidin-1-yl)-5-(2-fluoro-4-(4-fluorophenethoxy)phenyl)-2-methylpyridin-3-yl)acetic acid] was 2 nM. In turn, `COc1cccc(-c2cnc(C)c([C@H](OC(C)(C)C)C(=O)O)c2N2CCC(C)(C)CC2)n1` [Example 189, (S)-2-(tert-Butoxy)-2-(4′-(4,4-dimethylpiperidin-1-yl)-6-methoxy-6′-methyl-[2, 3′-bipyridin]-5′-yl)acetic acid] displayed an EC50 of 41 nM.

In turn, `Cc1nc(C(C)O)c(-c2ccc(OCCc3ccc(F)cc3)c(F)c2)c(N2CCC(C)(C)CC2)c1[C@H](OC(C)(C)C)C(=O)O` (single isomer, unassigned) [Example 236] registered an EC50 of 2 nM. For `Cc1ncc(-c2ccc(OCCc3ccccc3F)cc2)c(N2CCC(C)(C)CC2)c1[C@H](OC(C)(C)C)C(=O)O` [Example 259, (S)-2-(tert-Butoxy)-2-(4-(4,4-dimethylpiperidin-1-yl)-5-(4-(2-fluorophenethoxy)phenyl)-2-methylpyridin-3-yl)acetic acid], the midpoint of the response, the EC50, lay at 1 nM.

As for `Cc1nc(C(N)=O)c([C@H](OC(C)(C)C)C(=O)O)c(N2CCC(C)(C)CC2)c1-c1ccc(OCCc2ccc(F)cc2)cc1` [Example 6, (S)-2-(tert-Butoxy)-2-(2-carbamoyl-4-(4,4-dimethylpiperidin-1-yl)-5-(4-(4-fluorophenethoxy)phenyl)-6-methylpyridin-3-yl)acetic acid], the 50% effective concentration (EC50) is 14 nM. The value for `CCC(C)(C)O[C@H](C(=O)O)c1c(C)ncc(-c2ccc(OCCc3ccccc3)cc2)c1N1CCC(C)(C)CC1` [Example 264, (S)-2-(4-(4,4-Dimethylpiperidin-1-yl)-2-methyl-5-(4-phenethoxyphenyl)pyridin-3-yl)-2-(tert-pentyloxy)acetic acid] was 3 nM. `COc1ccc(COc2ccc(-c3cnc(C)c([C@H](OC(C)(C)C)C(=O)O)c3N3CCC(C)(C)CC3)nc2)cc1` [Example 339, (2S)-2-(tert-butoxy)-2-[4′-(4,4-dimethylpiperidin-1-yl)-5-[(4-methoxyphenyl)methoxy]-6′-methyl-[2,3′-bipyridine]-5′-yl]acetic acid] showed an EC50 of 2 nM. In turn, `Cc1ncc(-c2cnc(OCCc3c(F)cccc3Cl)c(F)c2)c(N2CCC(C)(C)CC2)c1[C@H](OC(C)(C)C)C(=O)O` [Example 239, (S)-2-(tert-Butoxy)-2-(6′-(2-chloro-6-fluorophenethoxy)-4-(4,4-dimethylpiperidin-1-yl)-5′-fluoro-6-methyl-[3, 3′-bipyridin]-5-yl)acetic acid] gave a concentration giving a half-maximal response (EC50) of 3 nM. `Cc1ncc(-c2ccc(OCCc3ccc(F)cc3)c(C(F)(F)F)c2)c(N2CCC(C)(C)CC2)c1[C@H](OC(C)(C)C)C(=O)O` [Example 241, (S)-2-(tert-Butoxy)-2-(4-(4,4-dimethylpiperidin-1-yl)-5-(4-(4-fluorophenethoxy)-3-(trifluoromethyl)phenyl)-2-methylpyridin-3-yl)acetic acid] registered a 50% effective concentration (EC50) of 7 nM.
